The values below come from patent US12209086B2, “FGFR3 inhibitor compounds” (ELI LILLY AND COMPANY, priority 2021, dated 2025).

Each structure is given as a SMILES string. pIC50: −log10 of the molar value. Some results are limits rather than exact numbers.

The target of the assay is T1, FGFR3 protein (Homo sapiens, UniProt P22607).
T1 construct: purchased Reaction Biology 1068
In words: FGFR3 enzyme assay (KinEASE-TK HTRF kinase assay). The format is biochemical. The conditions noted are these: 0.25 nM enzyme, ATP at Km, 15 min pre-incubation on ice, 30 min at 30° C. On the procedure: FGFR3 and FGFR1 Enzyme Assay
Enzyme activity was monitored using the KinEASE™-TK Assay Kit (Cisflio, Cat. No. 62TK0PEC) according to the manufacturer's instructions. All assays were performed at the respective KmATP for each kinase in KinEASE™ Kinase Buffer.
Titration of compounds were performed in a half-log manner in 100% dimethyl sulfoxide (DMSO) starting at 1 uM. Prior to the initiation of the reaction by adenosine triphosphate (ATP), FGFR1 protein and compounds were pre-incubated for 15 minutes at room temperature, and FGFR3 protein and compounds were pre-incubated on ice for 15 minutes. Reactions proceeded for 30 min at 30° C. Plates were quenched by the addition of the Anti-TK cryptate antibody/Streptavidin-XL665 mixture.
Ratios were converted to a percent of control (POC) using a ratiometric emission factor. One hundred POC was determined using no test compound, and 0 POC was determined in the presence of 1 uM of an appropriate control inhibitor.
On the technique in general: Time-resolved FRET reads energy transfer from a long-lived donor to a nearby acceptor.

T1 sequence (P22607 23-806): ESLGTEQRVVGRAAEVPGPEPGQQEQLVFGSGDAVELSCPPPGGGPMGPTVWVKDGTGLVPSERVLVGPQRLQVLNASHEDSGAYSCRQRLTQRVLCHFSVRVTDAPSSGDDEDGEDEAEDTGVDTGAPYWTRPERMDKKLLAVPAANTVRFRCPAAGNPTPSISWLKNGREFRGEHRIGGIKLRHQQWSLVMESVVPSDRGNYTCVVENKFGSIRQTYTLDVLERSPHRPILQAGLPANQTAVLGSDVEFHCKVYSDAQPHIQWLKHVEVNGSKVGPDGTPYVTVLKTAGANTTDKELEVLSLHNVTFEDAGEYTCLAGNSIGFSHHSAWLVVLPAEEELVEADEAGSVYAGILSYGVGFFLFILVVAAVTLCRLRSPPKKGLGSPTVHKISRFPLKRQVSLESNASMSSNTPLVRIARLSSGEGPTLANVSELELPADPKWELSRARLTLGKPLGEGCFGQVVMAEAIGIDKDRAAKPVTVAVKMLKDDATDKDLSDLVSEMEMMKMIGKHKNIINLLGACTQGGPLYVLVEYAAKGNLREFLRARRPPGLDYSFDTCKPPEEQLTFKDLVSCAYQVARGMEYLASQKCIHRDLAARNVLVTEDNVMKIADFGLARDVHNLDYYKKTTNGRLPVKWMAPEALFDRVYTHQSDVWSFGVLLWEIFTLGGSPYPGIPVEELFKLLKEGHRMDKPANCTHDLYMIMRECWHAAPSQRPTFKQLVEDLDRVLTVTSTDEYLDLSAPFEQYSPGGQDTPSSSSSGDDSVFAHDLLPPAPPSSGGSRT

On to `Cc1c(-c2cc(N[C@H](C)c3ccccn3)c3c(C#N)cnn3c2)cnn1C1CCN(C2CN(C#N)C2(C)C)CC1` (single isomer, unassigned) [Example 94], for which the pIC50 (commonly the negative decadic logarithm of the IC50, by convention in mol/L) is greater than 7.30.
In turn, `COc1cc(-c2cnn([C@H]3C[C@H]4CC[C@@H](C3)N4C#N)c2C)cn2ncc(C#N)c12` [Example 183, 6-(1-((1R,3r,5S)-8-Cyano-8-azabicyclo[3.2.1]octan-3-yl)-5-methyl-1H-pyrazol-4-yl)-4-methoxypyrazolo[1,5-a]pyridine-3-carbonitrile] showed a negative logarithm of the IC50 (pIC50) greater than 7.30.
Take `Cc1c(-c2cc(OC(CO)c3ccc(F)cn3)n3c(Cl)cnc3c2)nnn1C1CCN(C#N)CC1` (single isomer, unassigned; isomer 2) [Example 47, 4-[4-[3-Chloro-5-[1-(5-fluoro-2-pyridyl)-2-hydroxy-ethoxy]imidazo[1,2-a]pyidine-7-yl]-5-methyl-triazol-1-yl]piperidine-1-carbonitrile, Isomer 2]: the negative-log IC50 (pIC50) was greater than 7.30.
Take `COCC(Oc1cc(-c2nnn(C3CCN(C#N)CC3)c2C)cn2ncc(C#N)c12)c1cncc(C(F)(F)F)c1` (single isomer, unassigned; isomer 1) [Example 61, 6-[1-(1-cyano-4-piperidyl)-5-methyl-triazol-4-yl]-4-[2-methoxy-1-[5-(trifluoromethyl)-3-pyridyl]ethoxy]pyrazolo [1,5-a]pyridine-3-carbonitrile, Isomer 1]: the pIC50 is greater than 7.30.
`Cc1c(-c2cc(O[C@H](C)c3ccccn3)n3c(C#N)cnc3c2)nnn1C1CCN(C#N)CC1` [Example 201, 4-(4-[3-Cyano-5-[(1R)-1-(pyridin-2-yl)ethoxy]imidazo [1,2-a]pyridin-7-yl]-5-methyl-1,2,3-triazol-1-yl)piperidine-1-carbonitrile] gave a pIC50 greater than 7.30.
Consider `Cc1c(-c2cc(O[C@H](C)c3ccccn3)n3c(C#N)cnc3c2)nnn1C1CCN(C#N)C(C2CC2)C1` (single isomer, unassigned) [Example 281], for which the pIC50 is greater than 7.30.
The figure for `Cc1c(-c2cc(OCC(C)(O)c3ccc(F)cn3)c3c(F)cnn3c2)nnn1C1CCN(C#N)CC1` (single isomer, unassigned) [Example 157, 4-[4-[3-Fluoro-4-[2-(5-fluoro-2-pyridyl)-2-hydroxy-propoxy]pyrazolo[1,5-a]pyridin-6-yl]-5-methyl-triazol-1-yl]piperidine-1-carbonitrile] is greater than 7.30.
